According to patent US5495032A, “Process for producing 7-(substituted)-8-(substituted-9-[(substituted glycyl)amido]-6-demethyl-6-deoxytetracyclines” (priority 1994, dated 1996):
In brackets after ≈: the same amount, converted by molar mass. Structures can show the parent of a compound that is named as a salt. Where two headings read alike, the source gives them in different places.

Key:
Type in all cases: cell-based
E. coli J2175 = test: MIC, agar dilution method; details: 18 hours at 35° C.
S. aureus ROSE (MP) = test: MIC, agar dilution method; details: 18 hours at 35° C.
S. aureus IVES 2943 = test: MIC, agar dilution method; details: S. aureus IVES 2943, 18 hours at 35° C.
S. aureus UBMS 88-4 = test: MIC, agar dilution method
E. coli J3272 Tet D = test: microbe, parasite or virus in culture
E. coli J3272 Tet C = test: microbe, parasite or virus in culture
E. coli UBMS 90-4 Tet M = test: microbe, parasite or virus in culture; details: 18 hours at 35° C.
[1] = tested on: X. maltophilia NEMC 87210; test: MIC, agar dilution method; details: Stenotrophomonas maltophilia
S. aureus NEMC 8769 = test: MIC, agar dilution method; details: Staphylococcus aureus, NEMC8769, 18 h
E. coli ATCC 25922 = test: MIC, agar dilution method
E. coli BAJ9003 IMP MUT = test: microbe, parasite or virus in culture; details: 18 hours at 35° C.
S. aureus SMITH (MP) = test: MIC, agar dilution method; details: 18 hours at 35° C.
[2] = tested on: S. aureus UBMS 90-2 Tet M; test: microbe, parasite or virus in culture; details: 18 hours at 35° C.
S. aureus ATCC 29213 = test: MIC, agar dilution method; details: 18 hours at 35° C.
E. coli UBMS 90-5 sens = test: MIC, agar dilution method; details: 18 hours at 35° C.
S. aureus IVES 1 983 = test: MIC, agar dilution method; details: S. aureus IVES 1 983, 18 hours at 35° C.
[3] = tested on: S. aureus UBMS 88-5 Tet M; test: microbe, parasite or virus in culture
S. aureus UBMS 90-3 = test: MIC, agar dilution method
E. coli UBMS 88-1 Tet B = test: microbe, parasite or virus in culture; details: 18 hours at 35° C.
Enterococcus 12201 = test: MIC, agar dilution method; details: 18 hours at 35° C.
[4] = tested on: S. aureus UBMS 88-7 Tet K; test: microbe, parasite or virus in culture; details: 18 hours at 35° C.
E. faecalis ATCC 29212 = test: MIC, agar dilution method; details: Enterococcus faecalis
[5] = tested on: E. coli MC 4100 Tet sens.; test: MIC, agar dilution method; details: Escherichia coli, 18 hours at 35° C., read-out: MIC
[6] = tested on: Ps. acruginosa ATCC 27853; test: MIC, agar dilution method; details: Ps. acruginosa ATCC 27853; 18 hours at 35° C.; read-out: MIC
[7] = tested on: S. hemolyticus AVHAH 88-3; test: MIC, agar dilution method; details: 18 hours at 35° C.
[8] = tested on: S. aureus UBMS 90-1 Tet M; test: microbe, parasite or virus in culture; details: 18 hours at 35° C.
E. coli UBMS 89-1 Tet M = test: microbe, parasite or virus in culture; details: 18 hours at 35° C.
[9] = tested on: E. coli MC 4100 TNIOC Tet B; test: microbe, parasite or virus in culture; details: 18 hours at 35° C.
S. mariescens FPOR 8733 = test: MIC, agar dilution method; details: 18 hours at 35° C.
E. coli #311 (MP) = test: MIC, agar dilution method; details: 18 hours at 35° C.
E. coli PRP1 Tet A = test: microbe, parasite or virus in culture; details: 18 hours at 35° C.
[10] = tested on: E. coli UBMS 89-2 Tet sens; test: MIC, agar dilution method; details: 18 hours at 35° C.
[11] = Escherichia coli, read-out: MIC

Structure (SMILES): CN(C)CC(=O)Nc1c(Cl)cc2c(c1O)C(=O)C1=C(O)[C@]3(O)C(=O)C(C(N)=O)=C(O)[C@@H](N(C)C)C3CC1C2 (stereo partly drawn) [C, [4S-(4α,12aα)]-8-Chloro-4-(dimethylamino)-9-[[(dimethylamino)acetyl]amino]-1,4,4a,5,5a,6,11,12a-octahydro-3,10,12,12a-tetrahydroxy-1,11-dioxo-2-naphthacenecarboxamide]
- MIC (E. coli J2175): 1 µg/mL (≈ 1.82 µM)
- MIC (S. aureus ROSE (MP)): 1 µg/mL (≈ 1.82 µM)
- MIC (S. aureus IVES 2943): 4 µg/mL (≈ 7.29 µM)
- MIC (S. aureus UBMS 88-4; 18 hours at 35° C.): 0.12 µg/mL (≈ 0.219 µM)
- MIC (E. coli J3272 Tet D; E. coli J3272 Tet D, 18 hours at 35° C.): 0.5 µg/mL (≈ 0.911 µM)
- MIC (E. coli J3272 Tet C; E. coli J3272 Tet C, 18 hours at 35° C.): 8 µg/mL (≈ 14.6 µM)
- MIC (E. coli UBMS 90-4 Tet M): 0.5 µg/mL (≈ 0.911 µM)
- MIC ([1]; NEMC87210, 18 hours at 35° C., read-out: MIC): 0.05 µg/mL (≈ 0.0911 µM)
- MIC (S. aureus NEMC 8769): 0.03 µg/mL (≈ 0.0546 µM)
- MIC (E. coli ATCC 25922; 18 hours at 35° C.): 0.5 µg/mL (≈ 0.911 µM)
- MIC (E. coli BAJ9003 IMP MUT): 0.12 µg/mL (≈ 0.219 µM)
- MIC (S. aureus SMITH (MP)): 0.12 µg/mL (≈ 0.219 µM)
- MIC [2]: 1 µg/mL (≈ 1.82 µM)
- MIC (S. aureus ATCC 29213): 0.25 µg/mL (≈ 0.455 µM)
- MIC (E. coli UBMS 90-5 sens): 1 µg/mL (≈ 1.82 µM)
- MIC (S. aureus IVES 1 983): 4 µg/mL (≈ 7.29 µM)
- MIC ([3]; S. aureus UBMS 88-5 Tet M, 18 hours at 35° C.): 2 µg/mL (≈ 3.64 µM)
- MIC (S. aureus UBMS 90-3; S. aureus UBMS 90-3, 18 hours at 35° C.): 0.12 µg/mL (≈ 0.219 µM)
- MIC (E. coli UBMS 88-1 Tet B): 1 µg/mL (≈ 1.82 µM)
- MIC (Enterococcus 12201): 8 µg/mL (≈ 14.6 µM)
- MIC [4]: 0.25 µg/mL (≈ 0.455 µM)
- MIC (E. faecalis ATCC 29212; ATCC29212, 18 h, 18 hours at 35° C.): 0.5 µg/mL (≈ 0.911 µM)
- MIC [5]: 0.25 µg/mL (≈ 0.455 µM)
- MIC [6]: > 32 µg/mL
- MIC [7]: 0.5 µg/mL (≈ 0.911 µM)
- MIC [8]: 4 µg/mL (≈ 7.29 µM)
- MIC (E. coli UBMS 89-1 Tet M): 0.25 µg/mL (≈ 0.455 µM)
- MIC [9]: 1 µg/mL (≈ 1.82 µM)
- MIC (S. mariescens FPOR 8733): 8 µg/mL (≈ 14.6 µM)
- MIC (E. coli #311 (MP)): 0.5 µg/mL (≈ 0.911 µM)
- MIC (E. coli PRP1 Tet A): 8 µg/mL (≈ 14.6 µM)
- MIC [10]: 1 µg/mL (≈ 1.82 µM)

Structure (SMILES): CN(C)[C@@H]1C(O)=C(C(N)=O)C(=O)[C@@]2(O)C(O)=C3C(=O)c4c(cc(Cl)c(NC(=O)CN5CCCC5)c4O)CC3CC12 (stereo partly drawn) [E, [7S-(7α,10aα)]-N-[9-(Aminocarbonyl)-3-chloro-7-(dimethylamino)-5,5a,6,6a,7, 10,10a,12-octahydro-1,2,10a,11-tetrahydroxy-10,12-dioxo-2-naphthacenyl]-1-pyrrolidineacetamide dihydrochloride]
- MIC (E. coli J2175; [11]): 1 µg/mL
- MIC (S. aureus ROSE (MP); Staphylococcus aureus, 18 h): 8 µg/mL
- MIC (S. aureus IVES 2943; Staphylococcus aureus, IVES2943, read-out: MIC): 4 µg/mL
- MIC (S. aureus UBMS 88-4; Staphylococcus aureus, UBMS884, 18 hours at 35° C., read-out: MIC): 0.25 µg/mL
- MIC (E. coli J3272 Tet D; Escherichia coli, J3272TETD, 18 h): 0.25 µg/mL
- MIC (E. coli J3272 Tet C; Escherichia coli, J3272TETC, 18 h): 1 µg/mL
- MIC (E. coli UBMS 90-4 Tet M; Escherichia coli, UBMS904TETM, 18 h): 1 µg/mL
- MIC ([1]; NEMC87210, 18 h, 18 hours at 35° C.): 1 µg/mL
- MIC (S. aureus NEMC 8769): 0.25 µg/mL
- MIC (E. coli ATCC 25922; Escherichia coli, ATCC25922, 18 hours at 35° C., read-out: MIC): 0.25 µg/mL
- MIC (E. coli BAJ9003 IMP MUT; Escherichia coli, BAJ9003IMPMUT, 18 h): 0.12 µg/mL
- MIC (S. aureus SMITH (MP); Staphylococcus aureus, 18 h): 0.25 µg/mL
- MIC ([2]; Staphylococcus aureus, UBMS902TETM, 18 h): 0.25 µg/mL
- MIC (S. aureus ATCC 29213; Staphylococcus aureus, ATCC29213, 18 h): 0.25 µg/mL
- MIC (E. coli UBMS 90-5 sens; Escherichia coli, UBMS905SENS, read-out: MIC): 1 µg/mL
- MIC (S. aureus IVES 1 983; Staphylococcus aureus, IVES1983, read-out: MIC): 4 µg/mL
- MIC ([3]; Staphylococcus aureus, UBMS885TETM, 18 h): 0.25 µg/mL
- MIC (S. aureus UBMS 90-3; Staphylococcus aureus, UBMS903, 18 h): 0.12 µg/mL
- MIC (E. coli UBMS 88-1 Tet B; Escherichia coli, UBMS881TETB, 18 h): 1 µg/mL
- MIC (Enterococcus 12201; Enterococcus, 12201, 18 h): 0.25 µg/mL
- MIC ([4]; Staphylococcus aureus, UBMS887TETK, 18 h): 2 µg/mL
- MIC (E. faecalis ATCC 29212; ATCC29212, 18 hours at 35° C., read-out: MIC): 0.12 µg/mL
- MIC [5]: 0.25 µg/mL
- MIC [6]: 32 µg/mL
- MIC ([7]; Streptococcus pyogenes, AVHAH883, 18 h): 2 µg/mL
- MIC ([8]; Staphylococcus aureus, UBMS901TETM, 18 h): 0.25 µg/mL
- MIC (E. coli UBMS 89-1 Tet M; Escherichia coli, UBMS891TETM, 18 h): 0.25 µg/mL
- MIC ([9]; Escherichia coli, 18 h): 1 µg/mL
- MIC (S. mariescens FPOR 8733; 18 h): 8 µg/mL
- MIC (E. coli #311 (MP); [11]): 0.25 µg/mL
- MIC (E. coli PRP1 Tet A; Escherichia coli, PRP1TETA, 18 h): 2 µg/mL
- MIC ([10]; Escherichia coli, UBMS892TETSENS, 18 h, read-out: MIC): 1 µg/mL
